US9532956B2, “PH sensitive biodegradable polymeric particles for drug delivery” (Massachusetts Institute of Technology, priority 2009, dated 2017)

System: Red blood cells (RBCs)
Details: pH 7.4
Experimental: The red blood cells (RBCs) were separated from the whole blood or anticoagulant solution by centrifuging the whole blood at 800 rcf for 15 min. The supernatant was discarded and the RBCs were washed thrice with phosphate buffered saline (PBS). The stock of RBCs was prepared by mixing three volumes of the centrifuged RBCs with 11 parts of the phosphate buffered saline (PBS) with pH adjusted to 7.4, 6.5, or 5.4, and 100 μL of this stock was used for 1 ml of the sample. RBCs were mixed with Triton X-100 (1%, w/v) (positive control); with phosphate buffered saline (PBS) with pH adjusted to 7.4, 6.5, or 5.4 (negative control); and respective concentrations of amines, PLH and protamine at different pH (7.4, 6.5, or 5.4). Samples were incubated at 37° C. for 24 h on a tube shaker. The samples were centrifuged at 800 rcf for 15 min to separate intact RBCs. The supernatant was collected and kept for 30 min at room temperature to oxidize hemoglobin (Hb) and then the absorbance of Oxy-Hb was measured spectrophotometrically at 540 nm. The relative hemolysis efficiency was calculated as the percentage of released hemoglobin by the samples to that by Triton X-100. The percent hemolysis was calculated using the equation of a straight line, y=mx+c, where % hemolysis (x)=[optical density (y)−negative control optical density (c)]/[(positive control optical density−negative control optical density)/100] […]

Row | Compound | % hemolysis versus pH
1 | N[C@@H](Cc1c[nH]cn1)C(=O)N[C@@H](Cc1c[nH]cn1)C(=O)N[C@@H](Cc1c[nH]cn1)C(=O)N[C@@H](Cc1c[nH]cn1)C(=O)N[C@@H](Cc1c[nH]cn1)C(=O)N[C@@H](Cc1c[nH]cn1)C(=O)O [PLH, poly-L-histidine (PLH, 6-mer)] | maximum hemolytic properties at endosomal pH 5.4
2 | protamine | more hemolytic properties at physiological pH 7.4
